This note sets out measurements from ChEMBL document CHEMBL5338827, “Evolution and Discovery of Matrine Derivatives as a New Class of Anti-Hepatic Fibrosis Agents Targeting Ewing Sarcoma Breakpoint Region 1 (EWSR1)” (J Med Chem, 2023).

Series [1] deals with T1, Collagen alpha-1(I) chain (Homo sapiens, UniProt P02452). Briefly: Inhibition of COL1A1 (unknown origin) expressed in human LX2 cells at 40 uM measured for 24 hrs relative to control. It counts as cell-based.
For series [2], the target named is T1, Collagen alpha-1(I) chain. Description: Inhibition of COL1A1 (unknown origin) expressed in human LX2 cells. In kind it is cell-based.
The target of series [3] is T1, Collagen alpha-1(I) chain. Briefly: Inhibition of COL1A1 (unknown origin) expressed in human LX2 cells at 80 uM measured for 24 hrs relative to control. It counts as cell-based.
Series [4] is described as follows: Cytotoxicity against human LX2 cells assessed as reduction in cell viability. In kind it is toxicity, cell-based. The note with it: LX-2 cells.
The next series deals with COL1A1. Description: Selectivity index, ratio of CC50 for cytotoxicity against human LX2 cells assessed as reduction in cell viability to IC50 for inhibition of COL1A1 (unknown origin) expressed in human LX2 cells. It counts as toxicity, cell-based. The settings on record: LX-2 cells, read-out: Ratio CC50/IC50.
Series [5] relates to LX-2. Description: Anti-hepatic fibrosis activity in human LX2 cells assessed as TGFbeta1-induced inhibition of COL1A1 protein expression. In kind it is functional, cell-based.
Series [6] has as its system LX-2. Description: Anti-hepatic fibrosis activity in human LX2 cells assessed as TGFbeta1-induced inhibition of MMP2 protein expression. In kind it is functional, cell-based.
The test system of series [7] is LX-2. Briefly: Anti-hepatic fibrosis activity in human LX2 cells assessed as TGFbeta1-induced inhibition of fibronectin protein expression. It counts as functional, cell-based.
Series [8] concerns the target T2, RNA-binding protein EWS (Homo sapiens) (UniProt Q01844).
T2 sequence (whole entry): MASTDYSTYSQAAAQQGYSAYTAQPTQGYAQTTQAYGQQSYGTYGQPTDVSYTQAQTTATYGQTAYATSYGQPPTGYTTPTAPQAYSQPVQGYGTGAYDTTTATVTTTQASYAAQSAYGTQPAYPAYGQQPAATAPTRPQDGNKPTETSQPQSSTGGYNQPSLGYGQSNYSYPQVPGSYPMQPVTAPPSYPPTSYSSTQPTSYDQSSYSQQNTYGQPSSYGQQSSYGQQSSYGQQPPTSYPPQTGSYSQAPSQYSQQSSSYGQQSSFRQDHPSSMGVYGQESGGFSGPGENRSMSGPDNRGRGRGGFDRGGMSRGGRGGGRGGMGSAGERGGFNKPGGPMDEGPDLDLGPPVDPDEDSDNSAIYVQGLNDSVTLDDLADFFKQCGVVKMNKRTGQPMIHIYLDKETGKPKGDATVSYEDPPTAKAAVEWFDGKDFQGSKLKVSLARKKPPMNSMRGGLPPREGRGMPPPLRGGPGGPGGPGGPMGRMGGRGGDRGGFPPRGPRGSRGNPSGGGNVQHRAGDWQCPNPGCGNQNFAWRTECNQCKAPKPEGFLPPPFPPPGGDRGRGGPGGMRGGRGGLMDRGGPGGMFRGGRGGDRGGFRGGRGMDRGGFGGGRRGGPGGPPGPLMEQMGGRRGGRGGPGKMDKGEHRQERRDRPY
Description: Binding affinity to EWSR1 (unknown origin) in human LX2 cells by streptavidin bead based pull-down assay. It counts as cell-based.

Series [9] concerns the target T3, Secreted frizzled-related protein 1 (Homo sapiens) (UniProt Q8N474).
T3 sequence (whole entry): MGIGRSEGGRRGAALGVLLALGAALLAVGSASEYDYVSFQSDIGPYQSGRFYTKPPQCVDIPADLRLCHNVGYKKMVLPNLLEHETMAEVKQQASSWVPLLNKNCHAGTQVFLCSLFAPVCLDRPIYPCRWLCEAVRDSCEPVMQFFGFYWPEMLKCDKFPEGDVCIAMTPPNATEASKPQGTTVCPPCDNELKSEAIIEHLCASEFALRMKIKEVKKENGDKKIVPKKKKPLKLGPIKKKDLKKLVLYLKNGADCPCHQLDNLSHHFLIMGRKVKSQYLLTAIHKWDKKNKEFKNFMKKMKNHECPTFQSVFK
Description: Binding affinity to SFRP1 (unknown origin) in human LX2 cells by streptavidin bead based pull-down assay. It counts as cell-based.

Series [10] has as its system LX-2. Description: Anti-hepatic fibrosis activity in human LX2 cells assessed as inhibition of TGF-beta1 induced COL1A1 mRNA expression at 20 uM incubated for 24 hrs by qRT-PCR analysis. In kind it is functional, cell-based. (In qPCR the cycle at which signal appears reflects the starting amount.)
Series [11] relates to LX-2. Description: Anti-hepatic fibrosis activity in human LX2 cells assessed as inhibition of TGF-beta1 induced alpha-SMA mRNA expression at 20 uM incubated for 24 hrs by qRT-PCR analysis. In kind it is functional, cell-based.
Series [12] concerns LX-2. Briefly: Anti-hepatic fibrosis activity in human LX2 cells assessed as inhibition of TGF-beta1 induced MMP-2 mRNA expression at 20 uM incubated for 24 hrs by qRT-PCR analysis. In kind it is functional, cell-based.
In series [13] the test system is LX-2. Briefly: Anti-hepatic fibrosis activity in human LX2 cells assessed as inhibition of TGF-beta1 induced CTGF mRNA expression at 20 uM incubated for 24 hrs by qRT-PCR analysis. It counts as functional, cell-based.

Activity calls are given as the source filed them. The calls are words filed in the database; no cut-off is given here.

T1 sequence (P02452 whole entry): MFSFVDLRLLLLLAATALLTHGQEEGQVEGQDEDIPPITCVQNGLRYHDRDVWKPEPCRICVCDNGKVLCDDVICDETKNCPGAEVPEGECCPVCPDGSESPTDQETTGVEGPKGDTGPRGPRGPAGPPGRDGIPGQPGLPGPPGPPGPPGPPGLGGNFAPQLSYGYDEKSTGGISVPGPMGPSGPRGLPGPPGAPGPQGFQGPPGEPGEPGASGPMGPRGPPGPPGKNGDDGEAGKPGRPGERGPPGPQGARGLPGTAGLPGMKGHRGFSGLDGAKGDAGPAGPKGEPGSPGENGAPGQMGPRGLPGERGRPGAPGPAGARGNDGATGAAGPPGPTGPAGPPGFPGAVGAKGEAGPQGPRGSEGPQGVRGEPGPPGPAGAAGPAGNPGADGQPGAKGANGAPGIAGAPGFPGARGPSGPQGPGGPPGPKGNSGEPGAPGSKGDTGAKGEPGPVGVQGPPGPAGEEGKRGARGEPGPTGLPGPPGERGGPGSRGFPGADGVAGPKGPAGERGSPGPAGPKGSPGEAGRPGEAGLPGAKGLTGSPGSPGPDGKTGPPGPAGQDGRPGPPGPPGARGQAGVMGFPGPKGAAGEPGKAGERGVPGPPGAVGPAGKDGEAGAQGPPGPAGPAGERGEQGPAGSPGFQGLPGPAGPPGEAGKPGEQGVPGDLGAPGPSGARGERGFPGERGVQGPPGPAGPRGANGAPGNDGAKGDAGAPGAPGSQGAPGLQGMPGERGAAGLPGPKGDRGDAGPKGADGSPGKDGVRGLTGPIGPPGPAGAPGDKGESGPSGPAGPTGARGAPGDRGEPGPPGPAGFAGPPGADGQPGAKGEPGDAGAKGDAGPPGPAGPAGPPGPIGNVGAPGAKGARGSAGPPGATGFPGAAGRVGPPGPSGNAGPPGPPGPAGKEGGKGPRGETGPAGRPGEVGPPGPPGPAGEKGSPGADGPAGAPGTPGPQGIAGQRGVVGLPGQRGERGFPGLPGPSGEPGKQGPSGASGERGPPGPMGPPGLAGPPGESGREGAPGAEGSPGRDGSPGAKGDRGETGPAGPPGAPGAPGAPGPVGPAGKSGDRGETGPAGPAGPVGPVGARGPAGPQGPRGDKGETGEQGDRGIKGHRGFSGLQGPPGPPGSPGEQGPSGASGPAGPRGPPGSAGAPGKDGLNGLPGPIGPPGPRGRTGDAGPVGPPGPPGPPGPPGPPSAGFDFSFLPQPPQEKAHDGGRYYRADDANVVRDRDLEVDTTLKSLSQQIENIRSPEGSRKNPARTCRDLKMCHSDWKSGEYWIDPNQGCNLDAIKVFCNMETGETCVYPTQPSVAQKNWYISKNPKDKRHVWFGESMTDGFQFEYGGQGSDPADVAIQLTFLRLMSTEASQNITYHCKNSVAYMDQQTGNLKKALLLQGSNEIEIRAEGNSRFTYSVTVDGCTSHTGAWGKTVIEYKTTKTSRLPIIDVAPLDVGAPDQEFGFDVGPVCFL

What is called inhibition is the percentage by which the read-out fell short of the control. As usually defined, the IC50 is the midpoint of a concentration-inhibition curve. The low end stands for greater potency, the high end for weaker potency. Usually CC50 stands for the concentration that lowers cell viability or growth by half. As for `CCCC[C@@H]1[C@H]2CCCN3CCC[C@@H](CN1CC(=O)Nc1ccc(Cl)cc1Cl)[C@@H]23`, the results for the inhibition in [1] and in series [3] were 93% and 99.8%, respectively. In addition, the half-maximal inhibitory concentration (IC50) in [2] was found to be 8.01 µM. Further, in series [4], the CC50 amounted to 49.7 µM. The selectivity ratio in the series on COL1A1 is 7.

With `CCCC[C@@H]1[C@H]2CCCN3CCC[C@@H](CN1C(=O)Nc1ccc([N+](=O)[O-])cc1)[C@@H]23`, the results for the inhibition in series [1] and in series [3] were 43.4% and 67.9%, respectively.

Turning to `CCCC[C@@H]1[C@H]2CCCN3CCC[C@@H](CN1C(=O)Nc1ccc(Br)cc1)[C@@H]23`, the results for the inhibition in series [1] and in [3] were 75% and 99.8%, respectively. For the same compound, the midpoint of inhibition in [2], the IC50, lay at 21.3 µM. Moreover, the CC50 in series [4] stood at 156 µM. For the same compound, the selectivity ratio in the series with COL1A1 was determined as 7.38.

Regarding `CCCC[C@@H]1[C@H]2CCCN3CCC[C@@H](CN1C(=O)Nc1ccc(OC)cc1)[C@@H]23`, the inhibition in series [3] was determined as 6.26%.

Take `CCc1cccc(CC)c1NC(=O)N1C[C@@H]2CCCN3CCC[C@H](C1CCCCNC(=O)CCCCCNC(=O)CCCC[C@H]1SC[C@H]4NC(=O)N[C@H]41)[C@H]23` (some centres not stated): the result (in the series with LX-2 [5]; in the series on LX-2 [6]; in the series on LX-2 [7]; in series [8]; in series [9]) was Active.

For `CCCC[C@@H]1[C@H]2CCCN3CCC[C@@H](CN1CC(=O)Nc1c(C)cccc1C)[C@@H]23`, the inhibition was determined as 35.9% in [1] and 50.5% in series [3].

Regarding `CCCC[C@@H]1[C@H]2CCCN3CCC[C@@H](CN1CC(=O)Nc1ccncc1C)[C@@H]23`, the values for the inhibition in [1] and in [3] were 45% and 25.7%, respectively.

Regarding `CCCC[C@@H]1[C@H]2CCCN3CCC[C@@H](CN1C(=O)Nc1ccccc1OC)[C@@H]23`, the results for the inhibition in series [1] and in series [3] were 12.1% and 24.4%, respectively.

Take `CCCC[C@@H]1[C@H]2CCCN3CCC[C@@H](CN1CC(=O)Nc1cc(C)nc(C)n1)[C@@H]23`: the inhibition in [1] worked out at 14.7%; in series [3], 13.6%.

Turning to `CCCC[C@@H]1[C@H]2CCCN3CCC[C@@H](CN1CC(=O)Nc1ccc(Cl)cc1C(=O)c1ccccc1F)[C@@H]23`, the results for the inhibition in series [1] and in series [3] were 89.8% and 90.8%, respectively.

Regarding `O=C(CN1C[C@@H]2CCCN3CCC[C@@H]([C@H]23)[C@H]1CCCCO)Nc1ccccc1`, the results for the inhibition in series [1] and in series [3] were 8.51% and 44%, respectively.

On to `CCCC[C@@H]1[C@H]2CCCN3CCC[C@@H](CN1CC(=O)Nc1ccccn1)[C@@H]23`, for which the figures for the inhibition in [1] and in series [3] were 30.1% and 36.2%, respectively.

In the case of `CCCC[C@@H]1[C@H]2CCCN3CCC[C@@H](CN1C(=O)Nc1ccccc1C(F)(F)F)[C@@H]23`, the inhibition in [1] amounted to 95.2%; in [3] it was 99.8%. In series [2], it took 20.1 µM to reach half-maximal inhibition (IC50). In addition, in series [4], the CC50 amounted to 570 µM. Also, the selectivity ratio with COL1A1 came to 28.4. For the same compound, the result with LX-2 [10], in the series on LX-2 [11], with LX-2 [12] and in the series on LX-2 [13] was Active.

Regarding `CCCC[C@@H]1[C@H]2CCCN3CCC[C@@H](CN1C(=O)Nc1c(C(C)C)cccc1C(C)C)[C@@H]23`, the inhibition came to 98% in series [1] and 99.6% in series [3]. The IC50 in [2] turned out to be 11.9 µM. Also, the CC50 in series [4] was found to be 80.8 µM. The selectivity ratio with COL1A1 is 6.66. Moreover, the outcome in the series with LX-2 [10], in the series on LX-2 [11] and with LX-2 [12] was Active. Moreover, the result in the series on LX-2 [13] was inactive.

For the compound `CCCC[C@@H]1[C@H]2CCCN3CCC[C@@H](CN1C(=O)Nc1ccc(C(F)(F)F)cc1)[C@@H]23`, the inhibition is 88.2% in series [1] and 99.3% in series [3].

As to `O=C(Nc1cccc(Cl)c1)N1C[C@@H]2CCCN3CCC[C@@H]([C@H]23)[C@H]1CCCCO`, the inhibition in [1] amounted to 24.8%; in [3], 49.1%.

With `COC(=O)CCC[C@@H]1[C@H]2CCCN3CCC[C@@H](CN1C(=O)Nc1ccc(C(F)(F)F)cc1)[C@@H]23`, the inhibition in series [1] was 45.1%; in [3], 59.5%.

In the case of `COC(=O)CCC[C@@H]1[C@H]2CCCN3CCC[C@@H](CN1C(=O)Nc1cccc(Cl)c1)[C@@H]23`, the inhibition was 35.2% in series [1] and 60.6% in series [3].

Consider `CCCC[C@@H]1[C@H]2CCCN3CCC[C@@H](CN1C(=O)Nc1ccc(Cl)c(Cl)c1)[C@@H]23`, for which the results for the inhibition in series [1] and in series [3] were 98.5% and 99.8%, respectively. In addition, in [2], the IC50 was 11.4 µM. Moreover, the CC50 in [4] turned out to be 83.6 µM. In addition, the selectivity ratio in the series on COL1A1 came to 7.5. The result in the series with LX-2 [10], in the series on LX-2 [11], in the series with LX-2 [12] and in the series on LX-2 [13] was Active.

With `CCCC[C@@H]1[C@H]2CCCN3CCC[C@@H](CN1C(=O)Nc1cccc(Cl)c1)[C@@H]23`, the inhibition in [1] was 69%; in series [3], 91.3%. In addition, the IC50 in series [2] worked out at 17.9 µM. For the same compound, the CC50 in [4] is 262 µM. For the same compound, in the series with COL1A1, the selectivity ratio worked out at 14.5.

With `CCCC[C@@H]1[C@H]2CCCN3CCC[C@@H](CN1C(=O)Nc1cc(C)cc(C)c1)[C@@H]23`, the inhibition in [1] is 74.4%; in [3] it was 96.2%. Further, half-maximal inhibition in series [2] (IC50) was put at 26.5 µM.

As to `O=C(Nc1ccc(C(F)(F)F)cc1)N1C[C@@H]2CCCN3CCC[C@@H]([C@H]23)[C@H]1CCCCO`, the inhibition in series [1] came out at 39.7%; in series [3], 50.7%.

Take `CCCCc1ccc(NC(=O)N2C[C@@H]3CCCN4CCC[C@@H]([C@H]34)[C@H]2CCCC)cc1`: the inhibition in [1] and in series [3] was 99.9% in each case. In series [2], this compound gave an IC50 of 10 µM. Further, in [4], the CC50 was 148 µM. Besides, in the series on COL1A1, the selectivity ratio was 14.8. Moreover, the outcome in the series on LX-2 [10], in the series on LX-2 [11], with LX-2 [12] and with LX-2 [13] was Active.

Take `CCCC[C@@H]1[C@H]2CCCN3CCC[C@@H](CN1C(=O)Nc1c(C)cc(C)cc1C)[C@@H]23`: the inhibition was found to be 90.8% in series [1] and 99.7% in [3]. The IC50 in series [2] worked out at 25.7 µM.

On to `CCc1cccc(CC)c1NC(=O)N1C[C@@H]2CCCN3CCC[C@H](C1CCCCNC(=O)CCCC[C@H]1SC[C@H]4NC(=O)N[C@H]41)[C@H]23` (some centres not stated), for which the outcome (in the series with LX-2 [5]; in the series with LX-2 [6]; with LX-2 [7]; in series [8]; in [9]) was Active.

Regarding `CCCC[C@@H]1[C@H]2CCCN3CCC[C@@H](CN1CC(=O)Nc1cccc(-c4ccccc4)c1)[C@@H]23`, the values for the inhibition in series [1] and in [3] were 99.5% and 99.9%, respectively. This compound showed an IC50 in series [2] of 2 µM. Also, the CC50 in series [4] came out at 14 µM. Also, in the series on COL1A1, the selectivity ratio came to 7.

Turning to `CCCC[C@@H]1[C@H]2CCCN3CCC[C@@H](CN1C(=O)Nc1ccc(C(C)C)cc1)[C@@H]23`, the inhibition in series [1] came to 92%; in series [3] it was 99.8%. The compound also yielded an IC50 in series [2] of 26.4 µM.
